# Laboratory results from patent US20100137134A1, “Pesticidal Mixtures” (priority 2005, published 2010).
# How the values were obtained:
# [1] = test system: vetch aphid (Megoura viciae); test: Control of vetch aphid on broad bean leaf disks in 24-well microtiter plates (Test B.1); format: in vivo
# Method: For evaluating control of vetch aphid (Megoura viciae) through contact or systemic means the test unit consisted of 24-well-microtiter plates containing broad bean leaf disks.
# The compounds or mixtures were formulated using a solution containing 75% water and 25% DMSO (dimethylsulfoxid). Different concentrations of formulated compounds or mixtures were sprayed onto the leaf disks at 2.5 μl, using a custom built micro atomizer, at two replications.
# (§1) For experimental mixtures in these tests identical volumes of both mixing partners at the desired concentrations respectively, were mixed together.
# After application, the leaf disks were air-dried and 5-8 adult aphids placed on the leaf disks inside the microtiter plate wells. The aphids were then allowed to suck on the treated leaf disks and incubated at 23±1° C., 50±5% RH (room humidity) for 5 days. Aphid mortality and fecundity was then visually assessed.
# [2] = test system: boll weevil (Anthonomus grandis); test: Control of boll weevil, insect diet with eggs in 24-well microtiter plates (Test B.2); format: in vivo
# Method: For evaluating control of boll weevil (Anthonomus grandis) the test unit consisted of 24-well-microtiter plates containing an insect diet and 20-30 A. grandis eggs.
# The compounds or mixtures were formulated using a solution containing 75% water and 25% DMSO. Different concentrations of formulated compounds or mixtures were sprayed onto the […] at 20 μl, using a custom built micro atomizer, at two replications.
# as §1
# After application, microtiter plates were incubated at 23±1° C., 50±5% RH (room humidity) for 5 days. Egg and larval mortality was then visually assessed.
smiles,measurement,setting,value
Cc1cc(C#N)cc(C(N)=O)c1NC(=O)c1cc(Br)nn1-c1ncccc1Cl [IA-26/T4],Average (Control %),"[1]; test compound alone, 0.1 ppm (0 + 0.1), 5 days",0%
same,Average (Control %),"[2]; test compound alone, 0.3 ppm (0 + 0.3), 5 days",0%
"O=[N+]([O-])NC1=NCCN1Cc1ccc(Cl)nc1 [Imidacloprid, reference compound]",Average (Control %),"[1]; Imidacloprid alone, 1 ppm (1 + 0), aphid mortality and fecundity after 5 days",25%
same,Average (Control %),"[2]; Imidacloprid alone, 10 ppm (10 + 0), egg and larval mortality after 5 days",0%
Cc1cc(C#N)cc(C(=O)NC2CC2)c1NC(=O)c1cc(Br)nn1-c1ncccc1Cl [IA-326/T4],Average (Control %),"[2]; test compound alone, 0.01 ppm (0 + 0.01), 5 days",0%
same,Average (Control %),"[2]; test compound alone, 0.03 ppm (0 + 0.03), 5 days",0%
